{
  "source": "patent US8901118B2",
  "about": "“Compounds and methods for kinase modulation, and indications therefor” (Plexxikon Inc., priority 2010, dated 2014)",
  "test": "Relative solubility by turbidity in aqueous buffers (pH 1.5, 4.5, 6.8, 7.4)",
  "type": "physicochemical",
  "conditions": "for turbidity threshold (L, M, H) 1.4: pH 1.5 (SGF); for turbidity threshold (L, M, H) 4.5: pH 4.5 (SIF); for turbidity threshold (L, M, H) 6.8: pH 6.8 (SIF); for turbidity threshold (L, M, H) 7.4: pH 7.4 (HEPES)",
  "how_it_was_run": "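Reported value: concentration at which optical density at 490, 535 and 650 nm passes 0.01, taken as the mean of the three wavelengths. Buffers were 0.5M NaCl pH 1.5, 0.05M NaH2PO4 pH 4.5 or 6.8, and 10 mM HEPES/150 mM NaCl pH 7.4, each receiving serial 1:1 DMSO dilutions of a 25 mM stock.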",
  "data": [
    {"smiles": "Cc1ccc(Nc2ccc(C(=O)c3c[nH]c4ncc(Cl)cc34)c(F)n2)cn1", "note": "[Compound P-3044, (5-Chloro-1H-pyrrolo[2,3-b]pyridin-3-yl)-[2-fluoro-6-(6-methyl-pyridin-3-ylamino)-pyridin-3-yl]-methanone]", "values": [
      {"measurement": "turbidity threshold (L, M, H) 1.4", "result": "L (low solubility if the threshold concentration is <31.3 μM)"},
      {"measurement": "turbidity threshold (L, M, H) 4.5", "result": "L (low solubility if the threshold concentration is <31.3 μM)"},
      {"measurement": "turbidity threshold (L, M, H) 6.8", "result": "L (low solubility if the threshold concentration is <31.3 μM)"},
      {"measurement": "turbidity threshold (L, M, H) 7.4", "result": "M (moderate solubility if the threshold concentration is 31.3 μM to 250 μM)"}
    ]},
    {"smiles": "Cc1cnc2[nH]cc(Cc3cnc(Nc4ccc(C(F)(F)F)nc4)nc3)c2c1", "note": "[Compound P-3018, [5-(5-Methyl-1H-pyrrolo[2,3-b]pyridin-3-ylmethyl)-pyrimidin-2-yl]-(6-trifluoromethyl-pyridin-3-yl)-amine]", "values": [
      {"measurement": "turbidity threshold (L, M, H) 1.4", "result": "H (high solubility if the threshold concentration is >250 μm)"},
      {"measurement": "turbidity threshold (L, M, H) 4.5", "result": "M (moderate solubility if the threshold concentration is 31.3 μM to 250 μM)"},
      {"measurement": "turbidity threshold (L, M, H) 6.8", "result": "M (moderate solubility if the threshold concentration is 31.3 μM to 250 μM)"},
      {"measurement": "turbidity threshold (L, M, H) 7.4", "result": "M (moderate solubility if the threshold concentration is 31.3 μM to 250 μM)"}
    ]},
    {"smiles": "COc1ncnc2[nH]cc(Cc3ccc(Nc4ccc(Cl)nc4)nc3F)c12", "note": "[Compound P-4003, (6-Chloro-pyridin-3-yl)-[6-fluoro-5-(4-methoxy-7H-pyrrolo[2,3-d]pyrimidin-5-ylmethyl)-pyridin-2-yl]-amine]", "values": [
      {"measurement": "turbidity threshold (L, M, H) 1.4", "result": "M (moderate solubility if the threshold concentration is 31.3 μM to 250 μM)"},
      {"measurement": "turbidity threshold (L, M, H) 4.5", "result": "M (moderate solubility if the threshold concentration is 31.3 μM to 250 μM)"},
      {"measurement": "turbidity threshold (L, M, H) 6.8", "result": "M (moderate solubility if the threshold concentration is 31.3 μM to 250 μM)"},
      {"measurement": "turbidity threshold (L, M, H) 7.4", "result": "M (moderate solubility if the threshold concentration is 31.3 μM to 250 μM)"}
    ]},
    {"smiles": "CCOc1ccc(Nc2ccc(C(=O)c3c[nH]c4ncc(C)cc34)c(F)n2)cn1", "note": "[Compound P-3045, [6-(6-ethoxy-pyridin-3-ylamino)-2-fluoro-pyridin-3-yl]-(5-methyl-1H-pyrrolo[2,3-b]pyridin-3-yl)-methanone]", "values": [
      {"measurement": "turbidity threshold (L, M, H) 1.4", "result": "M (moderate solubility if the threshold concentration is 31.3 μM to 250 μM)"},
      {"measurement": "turbidity threshold (L, M, H) 4.5", "result": "M (moderate solubility if the threshold concentration is 31.3 μM to 250 μM)"},
      {"measurement": "turbidity threshold (L, M, H) 6.8", "result": "M (moderate solubility if the threshold concentration is 31.3 μM to 250 μM)"},
      {"measurement": "turbidity threshold (L, M, H) 7.4", "result": "L (low solubility if the threshold concentration is <31.3 μM)"}
    ]},
    {"smiles": "Cc1cnc2[nH]cc(C(=O)c3ccc(Nc4ccc(C)nc4)nc3F)c2c1", "note": "[Compound P-3043, [2-Fluoro-6-(6-methyl-pyridin-3-ylamino)-pyridin-3-yl]-(5-methyl-1H-pyrrolo[2,3-b]pyridin-3-yl)-methanone]", "values": [
      {"measurement": "turbidity threshold (L, M, H) 1.4", "result": "M (moderate solubility if the threshold concentration is 31.3 μM to 250 μM)"},
      {"measurement": "turbidity threshold (L, M, H) 4.5", "result": "M (moderate solubility if the threshold concentration is 31.3 μM to 250 μM)"},
      {"measurement": "turbidity threshold (L, M, H) 6.8", "result": "M (moderate solubility if the threshold concentration is 31.3 μM to 250 μM)"},
      {"measurement": "turbidity threshold (L, M, H) 7.4", "result": "M (moderate solubility if the threshold concentration is 31.3 μM to 250 μM)"}
    ]},
    {"smiles": "CCOc1ncnc2[nH]cc(C(=O)c3ccc(Nc4ccc(OC)nc4)nc3F)c12", "note": "[Compound P-4025, (4-Ethoxy-7H-pyrrolo[2,3-d]pyrimidin-5-yl)-[2-fluoro-6-(6-methoxy-pyridin-3-ylamino)-pyridin-3-yl]-methanone]", "values": [
      {"measurement": "turbidity threshold (L, M, H) 1.4", "result": "M (moderate solubility if the threshold concentration is 31.3 μM to 250 μM)"},
      {"measurement": "turbidity threshold (L, M, H) 4.5", "result": "L (low solubility if the threshold concentration is <31.3 μM)"},
      {"measurement": "turbidity threshold (L, M, H) 6.8", "result": "L (low solubility if the threshold concentration is <31.3 μM)"},
      {"measurement": "turbidity threshold (L, M, H) 7.4", "result": "L (low solubility if the threshold concentration is <31.3 μM)"}
    ]},
    {"smiles": "CCn1cc(Nc2ccc(Cc3c[nH]c4ncnc(C5CC5)c34)c(F)n2)cn1", "note": "[Compound P-4036, [5-(4-Cyclopropyl-7H-pyrrolo[2,3-d]pyrimidin-5-ylmethyl)-6-fluoro-pyridin-2-yl]-(1-ethyl-1H-pyrazol-4-yl)-amine]", "values": [
      {"measurement": "turbidity threshold (L, M, H) 1.4", "result": "H (high solubility if the threshold concentration is >250 μm)"},
      {"measurement": "turbidity threshold (L, M, H) 4.5", "result": "M (moderate solubility if the threshold concentration is 31.3 μM to 250 μM)"},
      {"measurement": "turbidity threshold (L, M, H) 6.8", "result": "L (low solubility if the threshold concentration is <31.3 μM)"},
      {"measurement": "turbidity threshold (L, M, H) 7.4", "result": "L (low solubility if the threshold concentration is <31.3 μM)"}
    ]},
    {"smiles": "COc1ccc(Nc2ccc(C(=O)c3c[nH]c4ncc(C)cc34)c(F)n2)cn1", "note": "[Compound P-3040, [2-Fluoro-6-(6-methoxy-pyridin-3-ylamino)-pyridin-3-yl]-(5-methyl-1H-pyrrolo[2,3-b]pyridin-3-yl)-methanone]", "values": [
      {"measurement": "turbidity threshold (L, M, H) 1.4", "result": "M (moderate solubility if the threshold concentration is 31.3 μM to 250 μM)"},
      {"measurement": "turbidity threshold (L, M, H) 4.5", "result": "M (moderate solubility if the threshold concentration is 31.3 μM to 250 μM)"},
      {"measurement": "turbidity threshold (L, M, H) 6.8", "result": "M (moderate solubility if the threshold concentration is 31.3 μM to 250 μM)"},
      {"measurement": "turbidity threshold (L, M, H) 7.4", "result": "M (moderate solubility if the threshold concentration is 31.3 μM to 250 μM)"}
    ]},
    {"smiles": "CCOc1ncnc2[nH]cc(Cc3ccc(Nc4ccc(OC)nc4)nc3F)c12", "note": "[Compound P-4018, [5-(4-Ethoxy-7H-pyrrolo[2,3-d]pyrimidin-5-ylmethyl)-6-fluoro-pyridin-2-yl]-(6-methoxy-pyridin-3-yl)-amine]", "values": [
      {"measurement": "turbidity threshold (L, M, H) 1.4", "result": "M (moderate solubility if the threshold concentration is 31.3 μM to 250 μM)"},
      {"measurement": "turbidity threshold (L, M, H) 4.5", "result": "L (low solubility if the threshold concentration is <31.3 μM)"},
      {"measurement": "turbidity threshold (L, M, H) 6.8", "result": "L (low solubility if the threshold concentration is <31.3 μM)"},
      {"measurement": "turbidity threshold (L, M, H) 7.4", "result": "L (low solubility if the threshold concentration is <31.3 μM)"}
    ]},
    {"smiles": "CCn1cc(Nc2ccc(C(=O)c3c[nH]c4ncnc(C5CC5)c34)c(F)n2)cn1", "note": "[Compound P-4037, (4-Cyclopropyl-7H-pyrrolo[2,3-d]pyrimidin-5-yl)-[6-(1-ethyl-1H-pyrazol-4-ylamino)-2-fluoro-pyridin-3-yl]-methanone]", "values": [
      {"measurement": "turbidity threshold (L, M, H) 1.4", "result": "H (high solubility if the threshold concentration is >250 μm)"},
      {"measurement": "turbidity threshold (L, M, H) 4.5", "result": "M (moderate solubility if the threshold concentration is 31.3 μM to 250 μM)"},
      {"measurement": "turbidity threshold (L, M, H) 6.8", "result": "M (moderate solubility if the threshold concentration is 31.3 μM to 250 μM)"},
      {"measurement": "turbidity threshold (L, M, H) 7.4", "result": "M (moderate solubility if the threshold concentration is 31.3 μM to 250 μM)"}
    ]},
    {"smiles": "Clc1cnc2[nH]cc(Cc3cnc(NC4CCCCC4)nc3)c2c1", "note": "[Compound P-3001, [5-(5-chloro-1H-pyrrolo[2,3-b]pyridin-3-ylmethyl)-pyrimidin-2-yl]-cyclohexyl-amine]", "values": [
      {"measurement": "turbidity threshold (L, M, H) 1.4", "result": "H (high solubility if the threshold concentration is >250 μm)"},
      {"measurement": "turbidity threshold (L, M, H) 4.5", "result": "L (low solubility if the threshold concentration is <31.3 μM)"},
      {"measurement": "turbidity threshold (L, M, H) 6.8", "result": "L (low solubility if the threshold concentration is <31.3 μM)"},
      {"measurement": "turbidity threshold (L, M, H) 7.4", "result": "L (low solubility if the threshold concentration is <31.3 μM)"}
    ]},
    {"smiles": "COCCOc1ncnc2[nH]cc(Cc3ccc(Nc4ccc(OC)nc4)nc3F)c12", "note": "[Compound P-4019, {6-Fluoro-5-[4-(2-methoxy-ethoxy)-7H-pyrrolo[2,3-d]pyrimidin-5-ylmethyl]-pyridin-2-yl}-(6-methoxy-pyridin-3-yl)-amine]", "values": [
      {"measurement": "turbidity threshold (L, M, H) 1.4", "result": "M (moderate solubility if the threshold concentration is 31.3 μM to 250 μM)"},
      {"measurement": "turbidity threshold (L, M, H) 4.5", "result": "L (low solubility if the threshold concentration is <31.3 μM)"},
      {"measurement": "turbidity threshold (L, M, H) 6.8", "result": "L (low solubility if the threshold concentration is <31.3 μM)"},
      {"measurement": "turbidity threshold (L, M, H) 7.4", "result": "L (low solubility if the threshold concentration is <31.3 μM)"}
    ]},
    {"smiles": "COc1ccc(Nc2ccc(C(=O)c3c[nH]c4ncnc(C5CC5)c34)c(F)n2)cn1", "note": "[Compound P-4022, (4-cyclopropyl-7H-pyrrolo[2,3-d]pyrimidin-5-yl)-[2-fluoro-6-(6-methoxy-pyridin-3-ylamino)-pyridin-3-yl]-methanone]", "values": [
      {"measurement": "turbidity threshold (L, M, H) 1.4", "result": "H (high solubility if the threshold concentration is >250 μm)"},
      {"measurement": "turbidity threshold (L, M, H) 4.5", "result": "M (moderate solubility if the threshold concentration is 31.3 μM to 250 μM)"},
      {"measurement": "turbidity threshold (L, M, H) 6.8", "result": "L (low solubility if the threshold concentration is <31.3 μM)"},
      {"measurement": "turbidity threshold (L, M, H) 7.4", "result": "L (low solubility if the threshold concentration is <31.3 μM)"}
    ]},
    {"smiles": "Fc1nc(NC2CCC(F)(F)CC2)ccc1Cc1c[nH]c2ncnc(NC3CC3)c12", "note": "[Compound P-4129, N-cyclopropyl-5-[[6-[(4,4-difluorocyclohexyl)amino]-2-fluoro-3-pyridyl]methyl]-7H-pyrrolo[2,3-d]pyrimidin-4-amine]", "values": [
      {"measurement": "turbidity threshold (L, M, H) 1.4", "result": "H (high solubility if the threshold concentration is >250 μm)"},
      {"measurement": "turbidity threshold (L, M, H) 4.5", "result": "M (moderate solubility if the threshold concentration is 31.3 μM to 250 μM)"},
      {"measurement": "turbidity threshold (L, M, H) 6.8", "result": "M (moderate solubility if the threshold concentration is 31.3 μM to 250 μM)"},
      {"measurement": "turbidity threshold (L, M, H) 7.4", "result": "M (moderate solubility if the threshold concentration is 31.3 μM to 250 μM)"}
    ]}
  ]
}
